Test results reported in US20250090510A1, “eIF4G1-eIF1 INHIBITORS AND USE THEREOF” (YEDA RESEARCH AND DEVELOPMENT CO. LTD., priority 2022, published 2025).
pIC50: −log10 of the molar value.

Experiments:
[1] = target: T1, eIF4G1 binding to eIF4E-cap complex (Homo sapiens, UniProt Q04637); experiment: Cap-binding assay on m7GTP cap-analog agarose beads; type: cell-based; conditions: HEK293T; i14G1-10 20 μM, i14G1-12 10 μM; 4 hours
T1 construct: endogenous in cells; host or cells: HEK293T
Experimental: (§1) FIGS. 2A-C: The effect of i14G1-10 and i14G1-12 on eIF1-eIF4G1 and eIF4E-eIF4G1 complexes. (2A-B) HA-eIF1 and HA-eIF4E were each transfected into HEK293T cells and 48 h after transfection cells were treated with DMSO or i14G1-10 (2A) or i14G1-12 (2B) for 4 h, followed by immunoprecipitation of HA-eIF1 or HA-eIF4E using anti-HA-agarose beads. Western blot was run to check co-immunoprecipitation of endogenous eIF4G1 with HA-eIF1 or HA-eIF4E. The graphs represent the co-immunoprecipitation of eIF4G1 with HA-eIF1 (right) or HA-eIF4E (left). Co—IP data shown as mean±SEM of 4-7 independent experiments. The asterisks denote statistically significant difference compared to DMSO, according to Student's t-tests (one-tailed, paired). *p<0.05. (2C) HEK293T cells were treated with DMSO, i14G1-10, or i14G1-12 for 4 h, followed by cell lysis. Respective cell lysates were incubated with cap analog (γ-Aminohexyl-m7GTP) beads for 2 h to precipitate bound eIF4E. Western blot was performed to check co-precipitation of eIF4G1 along with eIF4E on the cap-analog beads. The graph represents the binding fraction of eIF4G1 and eIF4E to the cap-analog beads (mean±SEM) with DMSO (black), i14G1-10 (blue), and i14G1-12 (red), n=6. The asterisks denote statistically significant difference compared to DMSO, according to Student's t-tests (one-tailed, paired). *p<0.05; **p<0.01.
Cap-binding Assay. […]

[2] = target: rabbit reticulocyte lysate; experiment: In-vitro translation of capped firefly luciferase mRNA; type: biochemical; conditions: 10 minutes pre-incubation, 90 minutes at 30° C.
eIF4E-eIF4G1 complex = target: T2, eIF4E-eIF4G1 complex (Homo sapiens, UniProt Q04637); experiment: Co-immunoprecipitation of endogenous eIF4G1 with HA-eIF4E; type: cell-based; conditions: HEK293T; i14G1-10 20 μM, i14G1-12 10 μM; 4 h
T2 construct: co-immunoprecipitation of endogenous eIF4G1 in HEK293T cells expressing HA-eIF1 or HA-eIF4E was performed; endogenous in cells; host or cells: HEK293T (eIF4G1 endogenous; HA-eIF4E transfected)
Experimental: as §1
(§2) Co-immunoprecipitation. HEK293T cells were transfected with 5 μg of HA-eIF1 or HA-eIF4E plasmids along with 10 ng GFP plasmid to check for transfection efficiency using Jetprime reagent as per manufacturer's protocol. After 48 h, HA-eIF1 and HA-eIF4E expressing HEK293T cells were incubated with DMSO, i14G1-10 (20 μM), and […] (10 μM). 4 h later, cells were lysed using IP buffer (20 mM Tris pH8, 125 mM NaCl, 10% glycerol, 50 mM NaF, 1 mM […], 0.5% NP-40, and 0.2 mM EDTA) supplemented with fresh protease inhibitor cocktail (1:100) and PMSF 200 μM (1:100). Protein extract was taken for immunoprecipitation using either monoclonal anti-HA-agarose antibody (Sigma) or control IgG antibody in IP buffer, at 4° C. for 2 hours. […]

eIF1-eIF4G1 complex = target: T3, eIF1-eIF4G1 complex (Homo sapiens, UniProt Q04637); experiment: Co-immunoprecipitation of endogenous eIF4G1 with HA-eIF1; type: cell-based; conditions: HEK293T; i14G1-10 20 μM, i14G1-12 10 μM; 4 h
T3 construct: co-immunoprecipitation of endogenous eIF4G1 in HEK293T cells expressing HA-eIF1 or HA-eIF4E was performed; endogenous in cells; host or cells: HEK293T (eIF4G1 endogenous; HA-eIF1 transfected)
Experimental: as §1, §2

T1 sequence (Q04637 whole entry): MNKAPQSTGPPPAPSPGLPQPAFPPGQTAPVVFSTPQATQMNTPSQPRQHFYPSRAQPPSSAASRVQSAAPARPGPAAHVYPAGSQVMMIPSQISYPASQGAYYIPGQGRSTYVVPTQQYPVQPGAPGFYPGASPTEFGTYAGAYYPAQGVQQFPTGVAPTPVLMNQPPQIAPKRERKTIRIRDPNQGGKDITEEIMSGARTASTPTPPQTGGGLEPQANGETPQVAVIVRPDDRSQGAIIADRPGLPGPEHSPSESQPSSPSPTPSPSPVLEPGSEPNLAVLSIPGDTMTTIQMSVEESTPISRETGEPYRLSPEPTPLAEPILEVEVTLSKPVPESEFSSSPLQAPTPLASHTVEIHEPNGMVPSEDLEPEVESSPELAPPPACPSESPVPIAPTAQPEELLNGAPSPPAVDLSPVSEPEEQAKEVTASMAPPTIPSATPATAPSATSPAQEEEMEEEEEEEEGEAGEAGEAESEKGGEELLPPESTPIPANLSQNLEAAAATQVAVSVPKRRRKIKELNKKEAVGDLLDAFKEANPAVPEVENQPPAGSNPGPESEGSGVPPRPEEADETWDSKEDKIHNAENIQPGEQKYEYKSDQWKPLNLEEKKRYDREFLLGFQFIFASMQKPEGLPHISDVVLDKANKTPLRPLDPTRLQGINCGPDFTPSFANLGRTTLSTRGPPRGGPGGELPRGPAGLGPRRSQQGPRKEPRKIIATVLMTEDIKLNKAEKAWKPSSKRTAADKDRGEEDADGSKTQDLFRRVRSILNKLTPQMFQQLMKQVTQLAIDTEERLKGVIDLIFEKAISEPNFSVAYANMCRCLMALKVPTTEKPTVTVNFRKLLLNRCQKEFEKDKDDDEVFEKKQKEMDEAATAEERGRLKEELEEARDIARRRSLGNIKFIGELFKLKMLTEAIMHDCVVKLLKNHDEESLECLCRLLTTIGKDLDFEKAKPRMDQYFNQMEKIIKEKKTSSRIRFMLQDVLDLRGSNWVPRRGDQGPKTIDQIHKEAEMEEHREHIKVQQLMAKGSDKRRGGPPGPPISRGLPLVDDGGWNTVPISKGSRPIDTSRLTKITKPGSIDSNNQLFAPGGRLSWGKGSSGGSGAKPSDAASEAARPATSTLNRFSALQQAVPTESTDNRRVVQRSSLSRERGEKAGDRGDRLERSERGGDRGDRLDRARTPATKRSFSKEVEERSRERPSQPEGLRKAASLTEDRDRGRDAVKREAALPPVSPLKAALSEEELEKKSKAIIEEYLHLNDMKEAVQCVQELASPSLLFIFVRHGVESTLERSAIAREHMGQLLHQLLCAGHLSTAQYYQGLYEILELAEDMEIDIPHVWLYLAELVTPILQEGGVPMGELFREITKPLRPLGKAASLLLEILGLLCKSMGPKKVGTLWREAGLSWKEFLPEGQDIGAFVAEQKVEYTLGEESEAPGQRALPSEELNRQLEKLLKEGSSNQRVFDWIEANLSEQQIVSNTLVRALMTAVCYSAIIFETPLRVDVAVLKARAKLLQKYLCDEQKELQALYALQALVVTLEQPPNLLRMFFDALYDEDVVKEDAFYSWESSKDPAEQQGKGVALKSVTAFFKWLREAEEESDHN
T1 sequence (P06730 2-217 partner limits assumed): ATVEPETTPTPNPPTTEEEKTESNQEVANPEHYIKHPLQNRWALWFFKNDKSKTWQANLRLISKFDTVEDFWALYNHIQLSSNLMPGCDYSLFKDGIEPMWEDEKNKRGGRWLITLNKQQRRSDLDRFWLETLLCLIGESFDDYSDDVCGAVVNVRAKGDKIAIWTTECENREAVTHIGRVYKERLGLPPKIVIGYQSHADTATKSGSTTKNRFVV
T3 sequence (Q04637 whole entry, one chain of several): as the sequence (Q04637 whole entry) above
T2 sequence (Q04637 whole entry): as above
T2 sequence (P06730 whole entry partner): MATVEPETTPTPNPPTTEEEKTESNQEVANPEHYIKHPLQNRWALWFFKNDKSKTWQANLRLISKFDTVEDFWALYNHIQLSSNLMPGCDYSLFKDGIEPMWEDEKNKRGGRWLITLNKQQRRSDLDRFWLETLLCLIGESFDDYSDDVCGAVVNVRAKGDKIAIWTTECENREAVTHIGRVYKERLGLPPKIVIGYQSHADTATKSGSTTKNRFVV

Row | SMILES | enhancement of eIF4G1 binding to eIF4E-cap complex [1] | pIC50 [2] | enhancement of eIF4G1 binding to HA-eIF4E (eIF4E-eIF4G1 complex) | reduction in eIF4G1 binding to HA-eIF1 (eIF1-eIF4G1 complex) [%]
1 | O=C(/C=C/Sc1ccc(C(F)(F)F)cn1)c1ccccc1 [i14G1-10] | 1.8 folds | 5.26 | dramatic enhancement | 50
2 | Cn1ccnc1S/C(=C/C=C(C#N)C#N)c1ccc(Cl)cc1 [i14G1-12] | no significant effect | 5.38 | not significant | 25
